Reference: the NIST ThermoML archive (doi:10.1016/j.jct.2013.08.013)

Assays:
[1] = 101 kPa, Liquid; for speed of sound: Frequency=2 MHz, Linear variable-path acoustic interferometer; for mass density: Vibrating tube method
[2] = xn = mol fraction of the nth substance listed; settings: 101 kPa, Liquid; for speed of sound: Frequency=2 MHz, Linear variable-path acoustic interferometer; for mass density: Vibrating tube method

Cc1ccccc1Cl [2-chlorotoluene]
[1]
Settings	mass density [kg/m3]	speed of sound [m/s]
298.15 K	1077.38	1299.8
303.15 K	1072.8	1283.6
308.15 K	1068.21	1265.6

Cc1ccccc1Cl [2-chlorotoluene] + CCCCCCCO
[2]
Settings	mass density, 298.15 K [kg/m3]	mass density, 303.15 K [kg/m3]	mass density, 308.15 K [kg/m3]	speed of sound, 298.15 K [m/s]	speed of sound, 303.15 K [m/s]	speed of sound, 308.15 K [m/s]
x1 = 0.0984	840.51	836.79	833.05	1324.4	1311	1289.7
x1 = 0.1921	861.75	857.88	853.98	1320.1	1306	1284
x1 = 0.2969	886.24	882.16	878.15	1313.6	1298.6	1276.2
x1 = 0.3983	910.69	906.43	902.26	1306.5	1290.7	1268.5
x1 = 0.4949	934.8	930.38	926.11	1299.3	1283.1	1260.9
x1 = 0.5961	960.97	956.41	952.02	1293.5	1276.2	1254.8
x1 = 0.7028	989.68	985.06	980.6	1289.2	1271.5	1250.4
x1 = 0.7968	1016.16	1011.5	1006.94	1287.7	1270.3	1249.7
x1 = 0.8993	1046.27	1041.59	1036.99	1289.1	1273.5	1254.3
x1 = 1	1077.38	1072.8	1068.21	1299.8	1283.6	1265.6

Cc1ccccc1Cl [2-chlorotoluene] + CCCCCCO
[2]
Settings	mass density, 298.15 K [kg/m3]	mass density, 303.15 K [kg/m3]	mass density, 308.15 K [kg/m3]	speed of sound, 298.15 K [m/s]	speed of sound, 303.15 K [m/s]	speed of sound, 308.15 K [m/s]
x1 = 0.0974	839.69	835.89	832.09	1304.1	1287	1268.7
x1 = 0.1968	864.67	860.71	856.77	1302	1284.3	1266
x1 = 0.3046	892	887.87	883.78	1298.3	1280.2	1260.7
x1 = 0.3967	915.57	911.34	907.1	1294.3	1275.7	1255.7
x1 = 0.489	939.38	934.99	930.68	1290.1	1271.1	1250.9
x1 = 0.5955	967.24	962.7	958.3	1286.1	1266.2	1246.3
x1 = 0.6902	992.34	987.72	983.26	1283.6	1264.1	1244.4
x1 = 0.8086	1024.27	1019.61	1015.04	1284.7	1265.4	1246.2
x1 = 0.8949	1047.98	1043.25	1038.71	1289.1	1270.5	1250
x1 = 1	1077.38	1072.8	1068.21	1299.8	1283.6	1265.6

Cc1ccccc1Cl [2-chlorotoluene] + CCCCCO
[2]
Settings	mass density, 298.15 K [kg/m3]	mass density, 303.15 K [kg/m3]	mass density, 308.15 K [kg/m3]	speed of sound, 298.15 K [m/s]	speed of sound, 303.15 K [m/s]	speed of sound, 308.15 K [m/s]
x1 = 0.0964	838.77	834.85	830.94	1280.2	1263	1250
x1 = 0.189	865.02	860.96	856.9	1282.2	1264	1250.2
x1 = 0.294	894.17	889.95	885.73	1281.9	1262.5	1247.7
x1 = 0.388	919.71	915.37	911.06	1280.9	1260.7	1244.5
x1 = 0.4962	948.58	944.07	939.74	1279	1258.1	1240.9
x1 = 0.5892	972.97	968.37	963.98	1277.5	1255.8	1238.3
x1 = 0.697	1000.83	996.18	991.75	1278	1256.1	1238
x1 = 0.8057	1028.54	1023.88	1019.37	1281	1260.1	1242.2
x1 = 0.8949	1051.02	1046.43	1041.83	1287	1267.2	1250
x1 = 1	1077.38	1072.8	1068.21	1299.8	1283.6	1265.6
